From the NIST ThermoML archive (doi:10.1016/j.jct.2016.03.026)

Assay: xn = mol fraction of the nth substance listed
Details: 273.15 K, Fluid (supercritical or subcritical phases), x1 = 0.97; for mass density: Vibrating tube method; for speed of sound: Frequency=5 MHz, Pulse-echo method

O=C=O [carbon dioxide] + CO
Details	mass density [kg/m3]	speed of sound [m/s]
17075 kPa	1005.11	–
17100 kPa	1005.21	–
17125 kPa	1005.3	–
17150 kPa	1005.42	–
17175 kPa	1005.49	–
17200 kPa	1005.63	–
17225 kPa	1005.7	–
17250 kPa	1005.78	–
17275 kPa	1005.9	–
17300 kPa	1006.03	–
17325 kPa	1006.1	–
17350 kPa	1006.19	–
17375 kPa	1006.3	–
17400 kPa	1006.36	–
17425 kPa	1006.5	–
17450 kPa	1006.55	–
17475 kPa	1006.68	–
17500 kPa	1006.76	–
17525 kPa	1006.86	–
17550 kPa	1006.92	–
17575 kPa	1007.06	–
17600 kPa	1007.11	–
17625 kPa	1007.24	–
17650 kPa	1007.37	–
17675 kPa	1007.42	–
17700 kPa	1007.56	–
17725 kPa	1007.61	–
17750 kPa	1007.74	–
17775 kPa	1007.82	–
17800 kPa	1007.92	–
17825 kPa	1008.05	–
17850 kPa	1008.1	–
17875 kPa	1008.22	–
17900 kPa	1008.28	–
17925 kPa	1008.41	–
17950 kPa	1008.47	–
17975 kPa	1008.58	–
18000 kPa	1008.63	–
18025 kPa	1008.76	–
18050 kPa	1008.81	–
18075 kPa	1008.93	–
18100 kPa	1009.05	–
18125 kPa	1009.17	–
18150 kPa	1009.21	–
18175 kPa	1009.33	–
18200 kPa	1009.44	–
18225 kPa	1009.49	–
18250 kPa	1009.61	–
18275 kPa	1009.68	–
18300 kPa	1009.76	–
18325 kPa	1009.88	–
18350 kPa	1009.93	–
18375 kPa	1010.03	–
18400 kPa	1010.15	–
18425 kPa	1010.26	–
18450 kPa	1010.33	–
18475 kPa	1010.41	–
18500 kPa	1010.52	–
18525 kPa	1010.58	–
18550 kPa	1010.7	–
18575 kPa	1010.82	–
18600 kPa	1010.88	–
18625 kPa	1010.99	–
18650 kPa	1011.1	–
18675 kPa	1011.15	–
18700 kPa	1011.25	–
18725 kPa	1011.35	–
18750 kPa	1011.46	–
18775 kPa	1011.49	–
18800 kPa	1011.59	–
18825 kPa	1011.7	–
18850 kPa	1011.81	–
18875 kPa	1011.88	–
18900 kPa	1011.94	–
18925 kPa	1012.05	–
18950 kPa	1012.15	–
18975 kPa	1012.26	–
19000 kPa	1012.37	–
19025 kPa	1012.45	–
19050 kPa	1012.49	–
19075 kPa	1012.6	–
19100 kPa	1012.7	–
19125 kPa	1012.77	–
19150 kPa	1012.83	–
19175 kPa	1012.93	–
19200 kPa	1013.04	–
19225 kPa	1013.15	–
19250 kPa	1013.25	–
19275 kPa	1013.27	–
19300 kPa	1013.37	–
19325 kPa	1013.48	–
19350 kPa	1013.58	–
19375 kPa	1013.61	–
19400 kPa	1013.72	–
19425 kPa	1013.82	–
19450 kPa	1013.91	–
19475 kPa	1013.95	–
19500 kPa	1014.05	–
19525 kPa	1014.15	–
19550 kPa	1014.24	–
19575 kPa	1014.34	–
19600 kPa	1014.44	–
19625 kPa	1014.47	–
19650 kPa	1014.56	–
19675 kPa	1014.66	–
19700 kPa	1014.76	–
19725 kPa	1014.86	–
19750 kPa	1014.88	–
19775 kPa	1014.98	–
19800 kPa	1015.08	–
19825 kPa	1015.19	–
19850 kPa	1015.29	–
19875 kPa	1015.31	–
19900 kPa	1015.41	–
19910 kPa	–	735.5
19925 kPa	1015.5	–
19950 kPa	1015.6	–
19975 kPa	1015.7	–
20000 kPa	1015.77	–
24940 kPa	–	776.2
29980 kPa	–	812.6
35030 kPa	–	845.6
